Test results reported in ChEMBL document CHEMBL6087432, “Brominated chalcones as promising antileishmanial agents” (Bioorg Med Chem Lett, 2025).

What was measured:
Leishmania amazonensis [1] = assay: Antileishmanial activity against Leishmania amazonensis promastigotes assessed as inhibition of parasite viability measured after 24 hrs by resazurin based colorimetric assay; format: functional, organism-based
[2] = Cytotoxicity against mouse L929 cells assessed as cell viability upto 50 uM measured after 24 hrs by MTT assay relative to control; format: toxicity, cell-based; conditions: read-out: Activity
Leishmania amazonensis [3] = assay: Antileishmanial activity against Leishmania amazonensis promastigotes assessed as inhibition of parasite viability at 50 uM measured after 24 hrs by resazurin based colorimetric assay relative to control; format: functional
[4] = Cytotoxicity against mouse L929 cells assessed as cell viability at 100 uM measured after 24 hrs by MTT assay relative to control; format: toxicity, cell-based; conditions: read-out: Activity

SMILES | IC50 (Leishmania amazonensis [1]) | viability at 24 h, 50 µM [2] | inhibition at 50 µM (Leishmania amazonensis [3]) | viability at 24 h, 100 µM [4]
COc1cc(OC)c(OC)cc1/C=C/C(=O)c1ccc(Br)cc1 | 6.33 µM | > 80% | 98.2% | > 60%
CN(C)c1ccc(/C=C/C(=O)c2cccc(Br)c2)cc1 | 10.8 µM | > 80% | 98.7% | > 70%
O=C(/C=C/c1cccs1)c1ccc(Br)cc1 |  |  | 93.6% | 
COc1ccc(/C=C/C(=O)c2cccc(Br)c2)cc1 |  |  | 93% | 
COc1ccc(/C=C/C(=O)c2ccc(Br)cc2)cc1 |  |  | 80.7% | 
O=C(/C=C/c1ccccc1)c1cccc(Br)c1 | 13.8 µM | > 80% | 99.8% | > 60%
CN(C)c1ccc(/C=C/C(=O)c2ccc(Br)cc2)cc1 |  |  | 91.2% | 
CSc1ccc(/C=C/C(=O)c2ccc(Br)cc2)cc1 |  |  | 39.3% | 
Cc1ccc(/C=C/C(=O)c2ccc(Br)cc2)cc1 |  |  | 57% | 
O=C(/C=C/c1ccc2c(c1)OCO2)c1ccc(Br)cc1 |  |  | 87.5% | 
O=C(/C=C/c1cccc2ccccc12)c1ccc(Br)cc1 |  |  | 83.9% | 
O=C(/C=C/c1ccc(OCc2ccccc2)cc1)c1cccc(Br)c1 |  |  | 95% | 
O=C(/C=C/c1ccccc1F)c1ccc(Br)cc1 | 23.9 µM | > 80% | 99.4% | > 60%
Cc1ccc(/C=C/C(=O)c2cccc(Br)c2)cc1 |  |  | 94.8% | 
O=C(/C=C/c1ccccc1F)c1cccc(Br)c1 |  |  | 91.7% | 
O=C(/C=C/C=C/c1ccccc1)c1ccc(Br)cc1 |  |  | 33.8% | 
O=C(/C=C/c1cccs1)c1cccc(Br)c1 |  |  | 86.7% | 
O=C(/C=C/C=C/c1ccccc1)c1cccc(Br)c1 |  |  | 90.8% | 
O=C(/C=C/c1cccc2ccccc12)c1cccc(Br)c1 |  |  | 90.8% | 
O=C(/C=C/c1ccc(OCc2ccccc2)cc1)c1ccc(Br)cc1 |  |  | 24.2% | 
CSc1ccc(/C=C/C(=O)c2cccc(Br)c2)cc1 | 11.4 µM | > 80% | 97.3% | > 70%
C[C@@H]1[C@H](O)[C@@H](C)/C=C/C=C/C=C/C=C/C=C/C=C/C=C/[C@H](O[C@@H]2O[C@H](C)[C@@H](O)[C@H](N)[C@@H]2O)C[C@@H]2O[C@](O)(C[C@@H](O)C[C@@H](O)[C@H](O)CC[C@@H](O)C[C@@H](O)CC(=O)O[C@H]1C)C[C@H](O)[C@H]2C(=O)O [AMPHOTERICIN B] | 0.115 µM |  |  | 
O=C(/C=C/c1ccccc1)c1ccccc1 [CHALCONE] | 10.6 µM |  | 90.1% | 
